Measurements reported in ChEMBL document CHEMBL1124814 (J Med Chem, 1990).
Positions of bridges follow the written chain, without caps; N, C: chain ends. Residues, ends and D or L forms follow the SMILES beside them.

Legend:
[1] = target: Kappa-type opioid receptor (Cavia porcellus, UniProt P41144); experiment: Binding affinity against Opioid receptor kappa 1 in guinea pig brain homogenate using [3H]- U-69593 as radioligand; assay type: tissue-based
Mu-type opioid receptor = Mu-type opioid receptor (Cavia porcellus, UniProt P97266); experiment: Binding affinity against Opioid receptor mu 1 in guinea pig brain homogenate using [3H]- PL-17 as radioligand; assay type: tissue-based
[2] = target: T1, Opioid receptor (Mus musculus) (UniProt P42866+P32300+P33534); experiment: Opioid receptors antagonist activity in smooth-muscle tissue mouse vas deferens (MVD) in presence of NLX; assay type: functional, tissue-based
Opioid receptor = Opioid receptor (Mus musculus, UniProt P42866+P32300+P33534); experiment: Opioid receptors antagonist activity in smooth-muscle tissue mouse vas deferens (MVD); assay type: functional, tissue-based
[3] = target: T2, Opioid receptors; mu/kappa/delta (Homo sapiens, UniProt P41145+P41143+P35372); conditions: Cavia porcellus; Ileum
Description: Opioid receptors antagonist activity in smooth-muscle tissue of guinea pig ileum (GPI) in presence of CTAP

[4] = target: T2, Opioid receptors; mu/kappa/delta; conditions: Cavia porcellus; Ileum; remark: listed apart in the source
Description: Opioid receptors antagonist activity in smooth-muscle tissue of guinea pig ileum (GPI) in presence of NLX

[5] = target: T2, Opioid receptors; mu/kappa/delta; experiment: Opioid receptors antagonist activity in smooth-muscle tissue of guinea pig ileum (GPI); assay type: functional, tissue-based, Cavia porcellus; conditions: target entry is the homologue from another species
[6] = target: T1, Opioid receptor (Mus musculus); experiment: Opioid receptors antagonist activity in smooth-muscle tissue mouse vas deferens (MVD) in presence of ICI; assay type: functional, tissue-based
[7] = target: T1, Opioid receptor (Mus musculus); experiment: Opioid receptors antagonist activity in smooth-muscle tissue mouse vas deferens (MVD) in presence of CTAP; assay type: functional, tissue-based

Sequence of Kappa-type opioid receptor (P41144 whole entry): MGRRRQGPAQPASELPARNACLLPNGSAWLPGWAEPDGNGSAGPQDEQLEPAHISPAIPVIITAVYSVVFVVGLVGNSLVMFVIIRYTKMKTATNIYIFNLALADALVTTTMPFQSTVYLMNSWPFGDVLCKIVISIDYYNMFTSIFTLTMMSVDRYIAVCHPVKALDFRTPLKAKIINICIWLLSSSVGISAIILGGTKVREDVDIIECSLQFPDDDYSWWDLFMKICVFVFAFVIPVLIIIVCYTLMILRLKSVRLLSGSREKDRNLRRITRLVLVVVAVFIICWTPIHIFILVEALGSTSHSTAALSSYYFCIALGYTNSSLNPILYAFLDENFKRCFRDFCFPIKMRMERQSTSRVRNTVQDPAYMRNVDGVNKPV
T2 sequence (P35372 whole entry, looked up): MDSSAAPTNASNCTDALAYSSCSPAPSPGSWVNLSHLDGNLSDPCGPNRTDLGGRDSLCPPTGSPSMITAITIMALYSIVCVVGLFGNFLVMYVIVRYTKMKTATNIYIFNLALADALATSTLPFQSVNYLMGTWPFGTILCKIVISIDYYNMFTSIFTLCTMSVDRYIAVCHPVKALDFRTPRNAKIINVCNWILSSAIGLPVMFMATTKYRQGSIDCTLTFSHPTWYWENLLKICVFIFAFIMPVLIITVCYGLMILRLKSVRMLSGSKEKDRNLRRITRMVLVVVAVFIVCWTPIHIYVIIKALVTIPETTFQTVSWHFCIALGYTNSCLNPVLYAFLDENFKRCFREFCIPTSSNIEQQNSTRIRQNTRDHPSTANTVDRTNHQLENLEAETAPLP
T2 sequence (P41143 whole entry, looked up): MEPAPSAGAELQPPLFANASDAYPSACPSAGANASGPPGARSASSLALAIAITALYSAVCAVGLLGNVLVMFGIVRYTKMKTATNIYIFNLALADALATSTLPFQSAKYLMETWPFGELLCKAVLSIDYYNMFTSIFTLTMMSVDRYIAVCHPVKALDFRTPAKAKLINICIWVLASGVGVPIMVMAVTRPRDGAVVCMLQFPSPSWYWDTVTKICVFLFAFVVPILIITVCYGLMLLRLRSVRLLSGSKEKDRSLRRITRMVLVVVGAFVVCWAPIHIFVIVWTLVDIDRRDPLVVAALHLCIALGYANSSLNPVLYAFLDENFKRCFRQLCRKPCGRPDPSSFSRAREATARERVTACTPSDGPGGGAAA
T2 sequence (P41145 whole entry, looked up): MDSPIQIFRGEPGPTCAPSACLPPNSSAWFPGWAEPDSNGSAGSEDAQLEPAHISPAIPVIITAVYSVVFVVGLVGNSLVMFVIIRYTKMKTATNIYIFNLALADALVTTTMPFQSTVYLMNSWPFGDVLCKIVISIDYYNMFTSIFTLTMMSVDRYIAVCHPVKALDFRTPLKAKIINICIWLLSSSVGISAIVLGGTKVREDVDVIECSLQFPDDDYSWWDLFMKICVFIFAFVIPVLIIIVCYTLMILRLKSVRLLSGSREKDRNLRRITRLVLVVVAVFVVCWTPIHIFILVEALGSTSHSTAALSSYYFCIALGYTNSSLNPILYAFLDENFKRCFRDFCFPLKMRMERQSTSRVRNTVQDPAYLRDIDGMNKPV
T1 sequence (P32300 whole entry, looked up): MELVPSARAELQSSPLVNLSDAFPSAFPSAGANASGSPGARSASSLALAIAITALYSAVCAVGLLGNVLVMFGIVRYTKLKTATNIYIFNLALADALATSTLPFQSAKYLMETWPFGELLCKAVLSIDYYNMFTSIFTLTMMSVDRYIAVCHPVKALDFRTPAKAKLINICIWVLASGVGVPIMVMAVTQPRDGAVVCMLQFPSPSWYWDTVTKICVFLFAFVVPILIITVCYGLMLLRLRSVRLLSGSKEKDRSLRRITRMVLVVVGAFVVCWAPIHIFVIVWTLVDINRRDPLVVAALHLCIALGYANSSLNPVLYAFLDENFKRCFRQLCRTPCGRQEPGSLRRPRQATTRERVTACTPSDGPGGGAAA
T1 sequence (P33534 whole entry, looked up): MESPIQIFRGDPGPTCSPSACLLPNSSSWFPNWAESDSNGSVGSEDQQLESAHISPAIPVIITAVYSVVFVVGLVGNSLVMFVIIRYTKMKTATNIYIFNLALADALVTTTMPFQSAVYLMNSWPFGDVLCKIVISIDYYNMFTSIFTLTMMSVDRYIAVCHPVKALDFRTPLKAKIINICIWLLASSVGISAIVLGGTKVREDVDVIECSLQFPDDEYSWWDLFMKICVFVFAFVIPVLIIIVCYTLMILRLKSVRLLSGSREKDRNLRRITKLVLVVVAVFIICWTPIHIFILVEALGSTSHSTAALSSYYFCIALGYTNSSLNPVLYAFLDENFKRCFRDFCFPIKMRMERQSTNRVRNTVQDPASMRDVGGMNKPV
T1 sequence (P42866 whole entry, looked up): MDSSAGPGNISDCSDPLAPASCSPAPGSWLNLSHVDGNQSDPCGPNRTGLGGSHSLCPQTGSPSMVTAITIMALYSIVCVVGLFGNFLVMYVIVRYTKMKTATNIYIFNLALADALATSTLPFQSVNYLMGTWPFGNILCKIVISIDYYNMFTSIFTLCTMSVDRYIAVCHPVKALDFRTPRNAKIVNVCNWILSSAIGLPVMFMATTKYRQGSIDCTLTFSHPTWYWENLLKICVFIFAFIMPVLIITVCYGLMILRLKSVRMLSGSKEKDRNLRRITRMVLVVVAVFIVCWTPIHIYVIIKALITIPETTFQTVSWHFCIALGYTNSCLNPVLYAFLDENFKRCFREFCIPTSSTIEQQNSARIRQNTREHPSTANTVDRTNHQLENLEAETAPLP
Sequence of Mu-type opioid receptor (P97266 whole entry): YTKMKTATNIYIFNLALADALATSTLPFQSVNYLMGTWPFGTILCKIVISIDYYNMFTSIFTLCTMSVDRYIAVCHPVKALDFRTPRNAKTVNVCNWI

| Structure (SMILES) | IC50 [1] | IC50 (Mu-type opioid receptor) | Ke [2] | IC50 (Opioid receptor) | Ke [3] | Ke [4] | IC50 [5] | Ke [6] | Ke [7] |
| --- | --- | --- | --- | --- | --- | --- | --- | --- | --- |
| C[C@H]1NC(=O)[C@H](CCCNC(=N)N)NC(=O)[C@H](CCCNC(=N)N)NC(=O)[C@@H](NC(=O)[C@H](Cc2ccccc2)NC(=O)CNC(=O)CNC(=O)[C@@H](N)Cc2ccc(O)cc2)CSSC[C@@H](C(N)=O)NC(=O)[C@@H]2CCCN2C(=O)[C@H](CCCNC(=N)N)NC1=O | 0.391 nM | 2.3 nM | – | – | – | – | – | – | – |
| CC[C@H](C)[C@H](NC(=O)[C@H](CCCN=C(N)N)NC(=O)[C@H](CCCN=C(N)N)NC(=O)[C@H](CC(C)C)NC(=O)[C@H](Cc1ccccc1)NC(=O)CNC(=O)CNC(=O)[C@@H](N)Cc1ccc(O)cc1)C(=O)N[C@@H](CCCN=C(N)N)C(=O)N1CCC[C@H]1C(=O)N[C@@H](CCCCN)C(=O)N[C@@H](CC(C)C)C(=O)N[C@@H](CCCCN)C(N)=O | 0.114 nM | 1.29 nM | 100 nM | 7.8 nM | 2000 nM | 82 nM | 1.7 nM | – | – |
| CC[C@H](C)[C@H](NC(=O)[C@H](CCCNC(=N)N)NC(=O)[C@H](CCCNC(=N)N)NC(=O)[C@H](CC(C)C)NC(=O)[C@H](Cc1ccccc1)NC(=O)CNC(=O)CNC(=O)[C@@H](N)Cc1ccc(O)cc1)C(=O)N[C@@H](CCCNC(=N)N)C(=O)N1CCC[C@H]1C(=O)N[C@@H](CCCCN)C(=O)N[C@@H](CC(C)C)C(=O)N[C@@H](CCCCN)C(=O)N[C@@H](Cc1c[nH]c2ccccc12)C(=O)N[C@@H](CC(=O)O)C(=O)N[C@@H](CC(N)=O)C(=O)N[C@@H](CCC(N)=O)C(=O)O [DYNORPHIN A (1-17)] | 0.231 nM | – | – | – | – | – | – | – | – |
| CC[C@H](C)[C@@H]1NC(=O)[C@H](CCCN=C(N)N)NC(=O)[C@H](CCCN=C(N)N)NC(=O)[C@@H](NC(=O)[C@H](Cc2ccccc2)NC(=O)CNC(=O)CNC(=O)[C@@H](N)Cc2ccc(O)cc2)CSSC[C@@H](C(N)=O)NC(=O)[C@@H]2CCCN2C(=O)[C@H](CCCN=C(N)N)NC1=O (H-YGGFCRRIRPC-NH2; disulfide 5-11) | 0.285 nM | 0.027 nM | 80 nM | 421 nM | – | 66.7 nM | 1080 nM | 86.2 nM | 2000 nM |
| CC(C)C[C@@H]1NC(=O)[C@H](CCCCN)NC(=O)[C@@H]2CCCN2C(=O)[C@H](CCCN=C(N)N)NC(=O)[C@H](NC(=O)[C@H](CCCN=C(N)N)NC(=O)[C@H](CCCN=C(N)N)NC(=O)[C@H](CC(C)C)NC(=O)[C@H](Cc2ccccc2)NC(=O)CNC(=O)CNC(=O)[C@@H](N)Cc2ccc(O)cc2)CSSC[C@@H](C(N)=O)NC1=O | – | – | 30.3 nM | 24.5 nM | – | 32.3 nM | 2.27 nM | 667 nM | 370 nM |
| CC[C@H](C)[C@H](NC(=O)[C@H](CCCN=C(N)N)NC(=O)[C@H](CCCN=C(N)N)NC(=O)[C@H](CC(C)C)NC(=O)[C@H](Cc1ccccc1)NC(=O)CNC(=O)CNC(=O)[C@@H](N)Cc1ccc(O)cc1)C(=O)N[C@@H](CCCN=C(N)N)C(=O)N1CCC[C@H]1C(=O)N[C@@H](CCCCN)C(N)=O | – | 1.08 nM | 125 nM | 204 nM | – | – | 7.5 nM | 625 nM | – |
| CC(C)C[C@@H]1NC(=O)[C@H](CCCCN)NC(=O)[C@@H]2CCCN2C(=O)[C@H](CCCN=C(N)N)NC(=O)[C@@H](NC(=O)[C@H](CCCN=C(N)N)NC(=O)[C@H](CCCN=C(N)N)NC(=O)[C@H](CC(C)C)NC(=O)[C@H](Cc2ccccc2)NC(=O)CNC(=O)CNC(=O)[C@@H](N)Cc2ccc(O)cc2)CSSC[C@@H](C(N)=O)NC1=O | 0.074 nM | 0.986 nM | 95.2 nM | 20.1 nM | – | 38.9 nM | 1.3 nM | 156 nM | 175 nM |
| C[C@H]1NC(=O)[C@H](CCCN=C(N)N)NC(=O)[C@H](CCCN=C(N)N)NC(=O)[C@@H](NC(=O)[C@H](Cc2ccccc2)NC(=O)CNC(=O)CNC(=O)[C@@H](N)Cc2ccc(O)cc2)CSSC[C@@H](C(N)=O)NC(=O)[C@@H]2CCCN2C(=O)[C@H](CCCN=C(N)N)NC1=O | – | – | – | 1660 nM | 50 nM | – | 4406 nM | 21.3 nM | 500 nM |
| CC(C)C[C@H](NC(=O)[C@H](Cc1ccccc1)NC(=O)CNC(=O)CNC(=O)[C@@H](N)Cc1ccc(O)cc1)C(=O)N[C@@H](CCCN=C(N)N)C(=O)N[C@@H](CCCN=C(N)N)C(=O)N[C@@H]1CSSC[C@H](C(N)=O)NC(=O)[C@H](CC(C)C)NC(=O)[C@H](CCCCN)NC(=O)[C@@H]2CCCN2C(=O)[C@H](CCCN=C(N)N)NC1=O | – | 0.362 nM | 18.2 nM | 19.5 nM | – | 233 nM | 1.75 nM | 1000 nM | 1430 nM |
| CC(C)C[C@@H]1NC(=O)[C@H](CCCCN)NC(=O)[C@@H]2CCCN2C(=O)[C@H](CCCNC(=N)N)NC(=O)[C@H](NC(=O)[C@H](CCCNC(=N)N)NC(=O)[C@H](CCCNC(=N)N)NC(=O)[C@H](CC(C)C)NC(=O)[C@H](Cc2ccccc2)NC(=O)CNC(=O)CNC(=O)[C@@H](N)Cc2ccc(O)cc2)CSSC[C@@H](C(N)=O)NC1=O | 1.76 nM | 10.3 nM | – | – | – | – | – | – | – |
